In brackets after ≈: the same amount, converted by molar mass.
Tests used:
Aspergillus versicolor [1] = assay: Antifungal activity against Aspergillus versicolor ATCC 11730 after 72 hrs by serial dilution method; assay type: functional; conditions: ATCC 11730, 72 h
Talaromyces funiculosus [2] = assay: Antifungal activity against Penicillium funiculosum ATCC 36839 after 72 hrs by serial dilution method; assay type: functional; conditions: ATCC 36839, 72 h
Trichoderma viride [3] = assay: Antifungal activity against Trichoderma viride IAM 5061 after 72 hrs by serial dilution method; assay type: functional; conditions: IAM 5061, 72 h
Talaromyces funiculosus [4] = assay: Fungicidal activity against Penicillium funiculosum ATCC 36839 incubated for 72 hrs followed by serial sub-cultivation for 72 hrs and measured after 72 hrs by serial dilution method; assay type: functional
Pseudomonas aeruginosa [5] = assay: Bactericidal activity against Pseudomonas aeruginosa ATCC 27853 incubated for 24 hrs followed by serial sub-cultivation and measured after 24 hrs by microdilution method; assay type: functional
Salmonella typhimurium [6] = assay: Bactericidal activity against Salmonella typhimurium ATCC 13311 incubated for 24 hrs followed by serial sub-cultivation and measured after 24 hrs by microdilution method; assay type: functional, Salmonella enterica subsp. enterica serovar Typhimurium
Micrococcus flavus [7] = assay: Antibacterial activity against Micrococcus flavus ATCC 10240 after 24 hrs by microdilution method; assay type: functional; conditions: ATCC 10240, 24 h
Listeria monocytogenes [8] = assay: Bactericidal activity against Listeria monocytogenes NCTC 7973 incubated for 24 hrs followed by serial sub-cultivation and measured after 24 hrs by microdilution method; assay type: functional
Staphylococcus aureus [9] = assay: Antibacterial activity against Staphylococcus aureus ATCC 6538 after 24 hrs by microdilution method; assay type: functional; conditions: ATCC 6538, 24 h
Aspergillus ochraceus [10] = assay: Fungicidal activity against Aspergillus ochraceus ATCC 12066 incubated for 72 hrs followed by serial sub-cultivation for 72 hrs and measured after 72 hrs by serial dilution method; assay type: functional
Enterobacter cloacae [11] = assay: Antibacterial activity against Enterobacter cloacae after 24 hrs by microdilution method; assay type: functional
Staphylococcus aureus [12] = assay: Bactericidal activity against Staphylococcus aureus ATCC 6538 incubated for 24 hrs followed by serial sub-cultivation and measured after 24 hrs by microdilution method; assay type: functional
Micrococcus flavus [13] = assay: Bactericidal activity against Micrococcus flavus ATCC 10240 incubated for 24 hrs followed by serial sub-cultivation and measured after 24 hrs by microdilution method; assay type: functional
Escherichia coli [14] = assay: Bactericidal activity against Escherichia coli ATCC 35210 incubated for 24 hrs followed by serial sub-cultivation and measured after 24 hrs by microdilution method; assay type: functional
Aspergillus fumigatus [15] = assay: Fungicidal activity against Aspergillus fumigatus incubated for 72 hrs followed by serial sub-cultivation for 72 hrs and measured after 72 hrs by serial dilution method; assay type: functional
Penicillium ochrochloron [16] = assay: Fungicidal activity against Penicillium ochrochloron ATCC 9112 incubated for 72 hrs followed by serial sub-cultivation for 72 hrs and measured after 72 hrs by serial dilution method; assay type: functional
Bacillus cereus [17] = assay: Antibacterial activity against Bacillus cereus after 24 hrs by microdilution method; assay type: functional
Pseudomonas aeruginosa [18] = assay: Antibacterial activity against Pseudomonas aeruginosa ATCC 27853 after 24 hrs by microdilution method; assay type: functional; conditions: ATCC 27853, 24 h
Aspergillus ochraceus [19] = assay: Antifungal activity against Aspergillus ochraceus ATCC 12066 after 72 hrs by serial dilution method; assay type: functional; conditions: ATCC 12066, 72 h
Trichoderma viride [20] = assay: Fungicidal activity against Trichoderma viride IAM 5061 incubated for 72 hrs followed by serial sub-cultivation for 72 hrs and measured after 72 hrs by serial dilution method; assay type: functional
Candida albicans [21] = assay: Fungicidal activity against Candida albicans incubated for 72 hrs followed by serial sub-cultivation for 72 hrs and measured after 72 hrs by serial dilution method; assay type: functional
Aspergillus fumigatus [22] = assay: Antifungal activity against Aspergillus fumigatus after 72 hrs by serial dilution method; assay type: functional
Candida albicans [23] = assay: Antifungal activity against Candida albicans after 72 hrs by serial dilution method; assay type: functional
Aspergillus niger [24] = assay: Antifungal activity against Aspergillus niger ATCC 6275 after 72 hrs by serial dilution method; assay type: functional; conditions: ATCC 6275, 72 h
Enterobacter cloacae [25] = assay: Bactericidal activity against Enterobacter cloacae incubated for 24 hrs followed by serial sub-cultivation and measured after 24 hrs by microdilution method; assay type: functional
Penicillium ochrochloron [26] = assay: Antifungal activity against Penicillium ochrochloron ATCC 9112 after 72 hrs by serial dilution method; assay type: functional; conditions: ATCC 9112, 72 h
Listeria monocytogenes [27] = assay: Antibacterial activity against Listeria monocytogenes NCTC 7973 after 24 hrs by microdilution method; assay type: functional; conditions: NCTC 7973, 24 h
Aspergillus niger [28] = assay: Fungicidal activity against Aspergillus niger ATCC 6275 incubated for 72 hrs followed by serial sub-cultivation for 72 hrs and measured after 72 hrs by serial dilution method; assay type: functional
Bacillus cereus [29] = assay: Bactericidal activity against Bacillus cereus incubated for 24 hrs followed by serial sub-cultivation and measured after 24 hrs by microdilution method; assay type: functional
Escherichia coli [30] = assay: Antibacterial activity against Escherichia coli ATCC 35210 after 24 hrs by microdilution method; assay type: functional; conditions: ATCC 35210, 24 h
Salmonella typhimurium [31] = assay: Antibacterial activity against Salmonella typhimurium ATCC 13311 after 24 hrs by microdilution method; assay type: functional, Salmonella enterica subsp. enterica serovar Typhimurium; conditions: Salmonella enterica, ATCC 13311, 24 h
Aspergillus versicolor [32] = assay: Fungicidal activity against Aspergillus versicolor ATCC 11730 incubated for 72 hrs followed by serial sub-cultivation for 72 hrs and measured after 72 hrs by serial dilution method; assay type: functional

Structure (SMILES)	MIC (Aspergillus versicolor [1]) [µM]	MIC (Talaromyces funiculosus [2]) [µM]	MIC (Trichoderma viride [3]) [µM]	MFC99.5 (Talaromyces funiculosus [4]) [×10⁻² umol/ml]	MBC99.5 (Pseudomonas aeruginosa [5]) [×10⁻² umol/ml]	MBC99.5 (Salmonella typhimurium [6]) [×10⁻² umol/ml]	MIC (Micrococcus flavus [7]) [µM]	MBC99.5 (Listeria monocytogenes [8]) [×10⁻² umol/ml]	MIC (Staphylococcus aureus [9]) [µM]	MFC99.5 (Aspergillus ochraceus [10]) [×10⁻² umol/ml]	MIC (Enterobacter cloacae [11]) [µM]	MBC99.5 (Staphylococcus aureus [12]) [×10⁻² umol/ml]	MBC99.5 (Micrococcus flavus [13]) [×10⁻² umol/ml]	MBC99.5 (Escherichia coli [14]) [×10⁻² umol/ml]	MFC99.5 (Aspergillus fumigatus [15]) [×10⁻² umol/ml]	MFC99.5 (Penicillium ochrochloron [16]) [×10⁻² umol/ml]	MIC (Bacillus cereus [17]) [µM]	MIC (Pseudomonas aeruginosa [18]) [µM]	MIC (Aspergillus ochraceus [19]) [µM]	MFC99.5 (Trichoderma viride [20]) [×10⁻² umol/ml]	other results
O=C(NN1C(=O)CSC1c1c(Cl)cccc1Cl)c1nsc2ccccc12 (centres undefined)	189 (≈ 80.2 µg/mL)	395 (≈ 168 µg/mL)	132 (≈ 56 µg/mL)	79	39.5	79	543 (≈ 230 µg/mL)	79	189 (≈ 80.2 µg/mL)	18.9	543 (≈ 230 µg/mL)	39.5	79	79	79	79	395 (≈ 168 µg/mL)	189 (≈ 80.2 µg/mL)	94.5 (≈ 40.1 µg/mL)	18.9	MFC99.5 (Candida albicans [21]): 79 ×10⁻² umol/ml; MIC (Aspergillus fumigatus [22]): 395 µM (≈ 168 µg/mL); MIC (Candida albicans [23]): 395 µM (≈ 168 µg/mL); MIC (Aspergillus niger [24]): 395 µM (≈ 168 µg/mL); MBC99.5 (Enterobacter cloacae [25]): 79 ×10⁻² umol/ml; MIC (Penicillium ochrochloron [26]): 395 µM (≈ 168 µg/mL); MIC (Listeria monocytogenes [27]): 395 µM (≈ 168 µg/mL); MFC99.5 (Aspergillus niger [28]): 79 ×10⁻² umol/ml; MBC99.5 (Bacillus cereus [29]): 79 ×10⁻² umol/ml; MIC (Escherichia coli [30]): 543 µM (≈ 230 µg/mL); MIC (Salmonella typhimurium [31]): 395 µM (≈ 168 µg/mL); MFC99.5 (Aspergillus versicolor [32]): 70.8 ×10⁻² umol/ml
O=C(Cc1nsc2ccccc12)NN1C(=O)CSC1c1cccc(Cl)c1 (centres undefined)	100 (≈ 40.4 µg/mL)	100 (≈ 40.4 µg/mL)	50 (≈ 20.2 µg/mL)	19.8	37.2	37.2	198 (≈ 80 µg/mL)	37.2	100 (≈ 40.4 µg/mL)	10	198 (≈ 80 µg/mL)	37.2	37.2	37.2	37.2	10	198 (≈ 80 µg/mL)	198 (≈ 80 µg/mL)	74 (≈ 29.9 µg/mL)	10	MFC99.5 (Candida albicans [21]): 19.8 ×10⁻² umol/ml; MIC (Aspergillus fumigatus [22]): 100 µM (≈ 40.4 µg/mL); MIC (Candida albicans [23]): 100 µM (≈ 40.4 µg/mL); MIC (Aspergillus niger [24]): 100 µM (≈ 40.4 µg/mL); MBC99.5 (Enterobacter cloacae [25]): 37.2 ×10⁻² umol/ml; MIC (Penicillium ochrochloron [26]): 74 µM (≈ 29.9 µg/mL); MIC (Listeria monocytogenes [27]): 198 µM (≈ 80 µg/mL); MFC99.5 (Aspergillus niger [28]): 19.2 ×10⁻² umol/ml; MBC99.5 (Bacillus cereus [29]): 37.2 ×10⁻² umol/ml; MIC (Escherichia coli [30]): 198 µM (≈ 80 µg/mL); MIC (Salmonella typhimurium [31]): 100 µM (≈ 40.4 µg/mL); MFC99.5 (Aspergillus versicolor [32]): 19.2 ×10⁻² umol/ml

Source: ChEMBL document CHEMBL4257449, “New N-(2-phenyl-4-oxo-1,3-thiazolidin-3-yl)-1,2-benzothiazole-3-carboxamides and acetamides as antimicrobial agents” (2017)
